# Assay: Particle size of micronized digoxin obtained by the non-mechanical process
# Assay type: physicochemical
# Settings: for >90% of the particles (number distribution); digoxin precipitated per Example 1
# From the text: The digoxin thus obtained has a high purity and is ready to be incorporated in the usual pharmaceutical formulations, typically tablets; it has particle size of 20-30 micrometers for at least 90% of the particles, and is exempt from degradation products, as evident by a wholly neutral colour, and further confirmable analytically. In the present invention, the particle size distribution is meant as “number distribution” (thus not “volume distribution” or “mass distribution”); accordingly, any expressions of the type “x-y micrometers for at least m % of the particles” describes a particle distribution characterized in that at least m % of the number of particles making up the product have a size comprised between x and y micrometers; relevant particle size values can be measured by usual techniques, including laser diffraction, dynamic light scattering, dynamic image analysis, suitably equipped with data processing systems. The obtained digoxin can be formulated with common excipients. Suitable excipients are cellulose products like microcrystalline cellulose, cellulose ethers like methylcellulose, ethylcellulose, hydroxyethylcellulose, crosslinked polymers (e.g. polyplasdone XL, hyaluronic acid or alginic acid cross-linked with urea), gums from plants, etc. Common diluents like mannitol, fructose, as well as compression aids like magnesium stearate, can also be used. […]
smiles,measurement,value
C[C@H]1O[C@@H](O[C@H]2[C@@H](O)C[C@H](O[C@H]3[C@@H](O)C[C@H](O[C@H]4CC[C@@]5(C)[C@H](CC[C@@H]6[C@@H]5C[C@@H](O)[C@]5(C)[C@@H](C7=CC(=O)OC7)CC[C@]65O)C4)O[C@@H]3C)O[C@@H]2C)C[C@H](O)[C@@H]1O [digoxin],particle size,20-30 micrometers
